Columns and labels:
[1] = tested on: RAW 264.7 cells; assay: Reporter gene (luciferase) expression assay, lipoplex transfection of RAW 264.7 cells; type: cell-based, murine; settings: for in vitro transfection efficiencies relative to control mannosylated lipid 3: DOPE as co-lipid, lipid:DNA charge ratios 2:1 to 8:1, FIG. 4; for transfection efficiencies with DOPC as co-lipid compared to DOPE as co-lipid: lipid:DNA charge ratio of 8:1, FIG. 5
Description: The liposomes were prepared by the conventional method. Briefly, cationic lipids and co-lipids (Cholesterol, DOPE, DOPC) at 2:1 molar ratios were dissolved in chloroform. The solvent was then evaporated under a thin stream of nitrogen gas, vacuum dried for 8 h and hydrated in deionised water overnight to give a final lipid concentration of 1 mM for in vitro experiments or 5 mM for in vivo experiments. The hydrated lipid film was first vortexed for 30 seconds and then sonicated until clarity using a Branson 450 sonifier at 100% duty cycle and 25 W output power. The resulting clear aqueous liposomes were used in preparing lipoplexes.
(§1) Cells were seeded at a density of 25000 (for RAW 264.7) per well in a 96-well plate for 18-24 h before the transfection. 0.3 μg (0.9 nmol) of plasmid DNA was complexed with varying amounts of lipids (1 nmol-8 nmol) in serum free medium (total volume made up to 100 μL) for 30 minutes. The charge ratios were varied from 1:1 to 8:1 over these ranges of the lipids. Immediately prior to transfection, cells plated in the 96-well plate were washed with PBS (2×100 μL) followed by the addition of lipoplexes. After 4 h of incubation, the medium was replaced with fresh complete medium containing 10% FBS. The luciferase reporter gene activity was estimated after 24 h. The cells were washed twice with PBS (100 pt each) and lysed in 50 μL lysis buffer. Care was taken to ensure complete lysis. 10 μL Promega luciferase assay buffer was added to the 5 μL lysate in a polystyrene plate and the luciferase activity per well was estimated using a FLx800 microplate luminescence reader (Bio-Tek instruments, INC, UK). Protein concentration in each well was determined by the modified Lowry method (Lundqvist A, et al. J Immunother. 2002, 25, 445-454) and the luciferase activity was expressed as the relative light unit (RLU) per mg of the protein.
(§2) Each transfection experiment was repeated two times on two different days. The transfection values reported were average values from two replicate transfection plates assayed on the same day. When mannan was used, the cells were pretreated for 30 mins at 37° C., 5% CO2 with mannan (50 μg), and the transfection was carried out in its presence. After 4 h at 37° C., the medium was replaced with fresh complete medium without mannan and the transfection activity was evaluated after 24 h as described above.

[2] = Dendritic cell based genetic immunization (s.c. pre-transfected mbmDCs), anti β-gal antibody ELISA; type: in vivo, C57BL/6J mice; settings: s.c. 5×10^5 pre-transfected mbmDCs twice with 7-day interval; sera two weeks after second immunization; Part A, FIG. 13
Description: The transfected mbmDCs were harvested by DC isolation protocol described above and washed with PBS (2×100 μL). The cells were resuspended in HBSS medium at 5×10^5 cells/100 μL. 6-8 weeks old female C57BL/6J mice (n=5, each weighing 20-22 g) were immunized (s.c.) with 100 μL of transfected mbmDCs (˜5×10^5 cells) twice with a 7-day interval. Two weeks after the second immunization, mice were sacrificed and sera & spleens were collected for immune response assays.
Anti-β-gal antibodies were measured using an enzyme linked immunosorbent (ELISA) assay as described earlier (McKeever, U. et al. Vaccine 2002; 20:1524-1531). Briefly, 96 well ELISA plates were coated with β-gal protein (0.3 μg per well) using a 5 μg/mL stock solution prepared in PBS. Plates were washed with PBS (3×200 μL) and blocked with 1% BSA in PBS at room temperature for 2 h. The plates were then washed with PBS containing 0.05% Tween-20 (3×200 μL) and incubated with mouse sera (100 μL) at room temperature for 2 h. The plates were again washed with PBS containing 0.05% Tween-20 (3×200 μL) and 100 μL of diluted (1:1000) anti-mouse antibody conjugated to horse radish peroxidase was added to each well. […] The plates were then incubated in dark with 100 μL of ABTS (Calbiochem, USA) per well at 25° C. for 10 min and the absorbance was measured at 405 nm by ELISA reader (Bio-Tek instruments Inc, UK).

[3] = tested on: mouse bone marrow derived dendritic cells; assay: DC-transfection with pα5GFP lipoplexes, flow cytometric analysis of GFP expression; type: cell-based, C57BL/6J mice; settings: mbmDCs; for efficacies in delivering genes to dendritic cells relative to mannosyl analog 3: flow cytometry (FIG. 11) and fluorescence microscopy (FIG. 12)
Description: Primary mbmDCs were isolated using a previously described procedure (Inaba K, et al. J Exp Med 1992; 176:1693-1702). Briefly, bone marrow collected from tibias and fibulas of male C57BL/6 mice was passed through a nylon mesh to remove bone and debris, and resuspended in complete DC medium (RPMI-1640 containing 10% FBS, 50 μM β-mercaptoethanol, 2 mM glutamine, 1% NEAA, 20 ng/mL GM-CSF and 10 ng/mL IL-4, 1% antibiotic solution). Cells were supplemented with fresh DC medium every two days. After 6 days, the aggregated cells were dislodged by gently pipetting RPMI over the adherent stroma. The dislodged cells were pulled together and centrifuged at 280 g for […] at room temperature. The supernatant was discarded. The pellets were first resuspended in complete DC medium at 1×10^6 cells/mL and finally placed in 100 mm cell culture petri dishes at 1×10^7 cells/dish in 10 mL medium per dish. After 24 h, the nonadherent cells were collected by gently swirling the dish and were used for transfection and flow cytometry experiments. Cultures were maintained in a humidified atmosphere with 5% CO2 at 37° C.
First, the transfection efficiency of the lipids 1, 2 & 3 were evaluated in mouse bone marrow derived dendritic cells. To this end, the immature dendritic cells were isolated from the bone marrow of C57BL/6J mice by culturing with GM-CSF and IL-4 following the protocol described above. […] The profiles of the DC markers were monitored by flow cytometry. […] After confirming the presence of these expected DC markers on the surface of the isolated DCs, the transfection efficiencies of the cationic amphiphiles 1, 2 & 3 were evaluated in mbmDCs. […] Lipoplexes containing 3 μg of plasmid DNA encoding green fluorescence protein (pα5GFP) and 8 nmol cationic amphiphiles 1, 2 & 3 were added to the cells and incubated for 4 h at 37° C. in serum free medium with 5% CO2. […] The transfection efficiencies of the cationic amphiphiles 1, 2 & 3 were measured by Flow cytometric analysis.

[4] = tested on: RAW 264.7 cells; assay: Mannose receptor specific transfection of RAW 264.7 cells in presence and absence of mannan; type: cell-based, murine; settings: DOPE as co-lipid; lipid:DNA ratio 8:1 to 1:1; 50 μg mannan; FIGS. 6-8
Description: as §1, §2

[5] = tested on: NIH3T3 cells; assay: Transfection of NIH3T3 cells (no mannose receptor) in presence and absence of mannan; type: cell-based, murine; settings: DOPE as co-lipid, lipid:DNA ratio 8:1 to 1:1, 50 μg mannan, FIGS. 6-8
Description: as §1, §2

Row | Substance | in vitro transfection efficiencies relative to control mannosylated lipid 3 [1] | transfection efficiencies with DOPC as co-lipid compared to DOPE as co-lipid [1] | anti β-gal antibody responses relative to mannosyl analog 3 [2] | efficacies in delivering genes to dendritic cells relative to mannosyl analog 3 [3] | transfection efficiencies when cells were pretreated with mannan [4] | transfection efficiency when cells were pretreated with mannan [5] | DC transfection efficiency (GFP expression by FACS) ([3]; 3 μg pα5GFP plasmid, 8 nmol cationic amphiphile, FIG. 11) [%]
1 | 2-[(N,N-di-n-hexadecyl-N-methyl)amino]-ethylL-L-lysyl-quinate chloride [lipid 2] | higher in vitro transfection efficiencies than their control mannosylated lipid 3 | enhanced further | higher anti β-gal antibody responses | superior to those of their mannosyl analog 3 | significantly diminished | did not get affected | 
2 | 2-[(N,N-di-n-hexadecyl-N-methyl)amino]-ethylL-L-lysyl-shikimate chloride [lipid 1] | higher in vitro transfection efficiencies than their control mannosylated lipid 3 | enhanced further | higher anti β-gal antibody responses | superior to those of their mannosyl analog 3 | significantly diminished | did not get affected | 
3 | 2-[(N,N-di-n-hexadecyl-N-methyl)amino]-ethylL-L-lysyl-β-D-Mannoside chloride [lipid 3, reference compound] |  | enhanced further |  |  | significantly diminished | did not get affected | 5
